Measured values reported in patent publication US9861685B2, “Methods of treating hemoglobinopathies” (Duke University, priority 2012, dated 2018).

Experiments:
[1] = tested on: SS RBCs co-incubated with polymorphonuclear cells (PMNs); settings: previously shown; SS RBCs co-incubated with naive PMNs; cited from earlier work
[2] = tested on: β-arrestin1/2; type: cell-based, human
[3] = tested on: ERK1/2; settings: see WO 2012/149547; cited from earlier work
[4] = tested on: ERK; settings: cited from earlier work
[5] = tested on: β-arrestin1/2; test: Western blot of SS RBC membrane ghosts for β-arrestin1/2 and phosphorylated β-arrestin1
[6] = tested on: human SS RBC adhesion to vascular endothelium and vaso-occlusion; test: Intravital microscopy of ex vivo treated human SS RBCs infused into nude mice (window chamber); type: in vivo; settings: nude mice n=2; SS RBCs treated ex vivo with 20 nM epinephrine 1 min
Description: For some in vivo adhesion studies, packed SS RBCs were fluorescently labeled with the dye Dil (Molecular Probes Inc., Eugene, Oreg.), following the manufacturer's instructions, prior to cell treatment. Dil has been used in previous in vivo studies, and this dye has no effect on RBC suspension viscosity and RBC survival in circulation.^30 Cell morphology was checked by microscopy.
All animal experiments were carried out in accordance with protocols approved by the Duke University Animal Care and Use Committee. Female athymic homozygous nude mice (nu-/nu-) were between 8-12 weeks of age (Charles River Laboratories, Wilmington, Mass.).
General anesthesia was achieved by intra-peritoneal injection of 100 mg/kg of ketamine (Abbott Laboratory, Chicago, Ill.) and 10 mg/kg of xylazine (Bayer, Shawnee Mission, Kans.). […]
Animals were infused with washed SS RBCs (300 μl hematocrit (Hct) 50% in saline) treated with epinephrine at 20 nM for 1 min or 5 μM βARK1 for 1 hour followed by treatment with 20 nM epinephrine for 1 min. […] Microcirculatory events and cell adhesion were simultaneously recorded using a Trinitron Color video monitor (PVM-1353 MD, Sony) and JVC videocassette recorder (BR-S3784, VCR King, Durham, N.C.) connected to a digital video camera C2400 (Hamamatsu Photonics K.K., Japan). […]

[7] = tested on: cAMP; settings: SS RBCs
[8] = tested on: ERK; type: cell-based, human
[9] = biological target: T1, GRK2 (Homo sapiens, UniProt P25098); test: Western blot of SS RBC membrane ghosts for total and phosphorylated GRK2
T1 sequence (P25098 1-689): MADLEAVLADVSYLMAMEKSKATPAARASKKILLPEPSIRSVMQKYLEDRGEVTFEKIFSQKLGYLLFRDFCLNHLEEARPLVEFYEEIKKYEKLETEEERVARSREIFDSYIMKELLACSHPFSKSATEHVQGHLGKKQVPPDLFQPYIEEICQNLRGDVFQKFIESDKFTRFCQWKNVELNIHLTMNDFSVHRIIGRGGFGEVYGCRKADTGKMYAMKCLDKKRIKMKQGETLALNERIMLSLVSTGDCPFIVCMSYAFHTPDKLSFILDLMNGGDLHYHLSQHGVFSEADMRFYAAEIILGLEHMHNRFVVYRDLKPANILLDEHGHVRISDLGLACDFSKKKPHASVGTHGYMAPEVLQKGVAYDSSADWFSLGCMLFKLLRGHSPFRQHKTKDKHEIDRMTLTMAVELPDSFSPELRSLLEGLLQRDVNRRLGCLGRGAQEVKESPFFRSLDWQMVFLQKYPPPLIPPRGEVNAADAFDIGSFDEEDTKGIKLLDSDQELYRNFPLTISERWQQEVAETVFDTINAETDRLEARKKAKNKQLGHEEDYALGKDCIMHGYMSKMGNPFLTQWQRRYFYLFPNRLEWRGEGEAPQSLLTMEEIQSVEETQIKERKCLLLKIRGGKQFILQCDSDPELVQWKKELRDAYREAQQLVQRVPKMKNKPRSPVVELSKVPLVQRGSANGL

COc1cc(F)c(F)c(Nc2ccc(I)cc2F)c1NS(=O)(=O)C1(C[C@H](O)CO)CC1 [RDEA119]
ability of SS RBCs to promote PMN adhesion to ECs [1]: decreased

CC(=O)Nc1cccc(-n2c(=O)n(C3CC3)c(=O)c3c(Nc4ccc(I)cc4F)n(C)c(=O)c(C)c32)c1 [GSK1120212]
ability of SS RBCs to promote PMN adhesion to ECs [1]: decreased

CNC[C@H](O)c1ccc(O)c(O)c1 [Epi, epinephrine]
basal phosphorylation of β-arrestin1 [2]: failed to increase | membrane-recruitment of β-arrestin1/2 [2]: failed to increase | ERK phosphorylation/activation in normal RBCs [3]: fails to become phosphorylated/activated | ERK phosphorylation [4]: enhanced | β-arrestin1/2 membrane-recruitment (translocation) [5]: enhanced | β-arrestin1 phosphorylation [5]: enhanced | SS RBC adhesion in inflamed venules [6]: marked adhesion | vaso-occlusion (occlusion of vessels) [6]: induced occlusion | SCD patient samples tested in which cAMP levels increased [7]: 50%

Cn1cnc2c(F)c(Nc3ccc(Br)cc3Cl)c(C(=O)NOCCO)cc21 [AZD6244]
ability of SS RBCs to promote PMN adhesion to ECs [1]: decreased

N#CC(=C(/N)Sc1ccccc1N)/C(C#N)=C(\N)Sc1ccccc1N [U0126]
effect on CT-increased ERK phosphorylation [8]: inhibited | effect on CT-induced β-arrestin1/2 membrane-translocation [5]: significantly inhibited | effect on PTx-induced β-arrestin1/2 recruitment to the membrane [5]: failed to have an effect | effect on levels of β-arrestin1 phosphorylation (CT-treated) [5]: decreased | ability of SS RBCs to promote PMN adhesion to ECs [1]: decreased | effect on CT-induced GRK2 membrane-translocation [9]: significantly abrogated | effect on CT-induced GRK2 phosphorylation [9]: significantly abrogated | effect on PTx-induced GRK2 membrane-translocation [9]: significantly abrogated | effect on PTx-induced GRK2 phosphorylation [9]: significantly abrogated
